# Source: US20210330611A1, “THERAPY FOR NEUROLOGICAL DISEASES/DISORDERS” (priority 2020, published 2021)
# Structures can show the parent of a compound that is named as a salt. Where two headings read alike, the source gives them in different places.
# What was measured:
# [1] = tested on: fibrin-induced microglia activation; assay: Image-based assay of fibrin-induced microglia activation (HTS and dose response); format: cell-based, rat; conditions: for inhibition at 10 µM: Rattus norvegicus, Microglia, read-out: Fibrin % inhibition
# [2] = tested on: LPS-induced microglia activation; assay: Image-based assay of LPS-induced microglia activation (HTS and dose response); format: cell-based, rat
# [3] = tested on: primary rat microglia;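 as to Fibrin % cell toxicity: share of dead cells sized under 150 µm2 at 10 µM in fibrin-stimulated microglia HTS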
# [4] = tested on: primary rat microglia; remark: listed apart in the source;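 as to Fibrin % cell toxicity: share of dead cells sized under 150 µm2 at 10 µM in fibrin-stimulated microglia HTS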
# [5] = tested on: fibrin- and LPS-induced microglia activation; assay: cells; format: cell-based, rat
# [6] = primary microglia HTS, fibrin stimulation, compounds at 10 μM
# [7] = Rattus norvegicus, Microglia, primary microglia HTS, LPS stimulation, compounds at 10 μM; read-out: LPS % inhibition
# [8] = quadrant by fibrin and LPS inhibition, HTS at 10 μM
# [9] = primary microglia HTS, 10 μM, fibrin-stimulated, cell size >800 μm^2 as marker of activation
# [10] = Rattus norvegicus, Microglia, primary microglia HTS, 10 μM, LPS-stimulated, cell size >800 μm^2 as marker of activation; read-out: LPS % inhibition
# [11] = HTS of 1907 compounds, quadrant by fibrin and LPS inhibition
# [12] = Rattus norvegicus, Microglia, 48 h, read-out: LPS % inhibition
# [13] = primary microglia HTS, fibrin stimulation, cell size >800 μm2 as marker of activation
# [14] = Rattus norvegicus, Microglia, 48 h; read-out: LPS % inhibition
# [15] = classification by fibrin and LPS inhibition in HTS
# [16] = primary microglia HTS, fibrin stimulation, increased cell size (>800 μm^2) as marker of activation
# [17] = quadrant by fibrin and LPS inhibition in HTS of 1907 compounds
# [18] = primary microglia HTS, fibrin stimulation, activation = cell size >800 μm2
# [19] = Rattus norvegicus, Microglia, 48 h, primary microglia HTS, LPS stimulation, activation = cell size >800 μm2; read-out: LPS % inhibition
molecule,measurement,setting,value
CC[C@]1(O)C[C@H]2CN(CCc3c([nH]c4ccccc34)[C@@](C(=O)OC)(c3cc4c(cc3OC)N(C=O)[C@H]3[C@@](O)(C(=O)OC)[C@H](OC(C)=O)[C@]5(CC)C=CCN6CC[C@]43[C@@H]65)C2)C1 [Vincristine],inhibition at 10 µM,[1]; [6],105%
same,inhibition at 10 µM,[2]; [7],104%
same,LPS % cell toxicity,[3]; rat,10%
same,Fibrin % cell toxicity,[4]; rat,33%
same,Quadrant (FIG. 5b),[5]; [8],Q2
Cc1c(O)c(=O)ccn1C [Deferiprone],inhibition at 10 µM,[1]; [6],31%
same,inhibition at 10 µM,[2]; [7],18%
same,LPS % cell toxicity,[3]; rat,0%
same,Fibrin % cell toxicity,[4]; rat,1%
same,Quadrant (FIG. 5b),"[5]; classification by fibrin and LPS inhibition, HTS at 10 μM",Q4
O=c1[nH]c(=O)n([C@H]2C[C@H](O)[C@@H](CO)O2)cc1C(F)(F)F [Trifluridine],inhibition at 10 µM,[1]; [9],10%
same,inhibition at 10 µM,[2]; [10],16%
same,LPS % cell toxicity,[3]; rat,1%
same,Fibrin % cell toxicity,[4]; rat,1%
same,Quadrant (FIG. 5b),[5]; [11],Q4
"CC[C@]1(O)C[C@@H]2CN(CCc3c([nH]c4ccccc34)[C@@](C(=O)OC)(c3cc4c(cc3OC)N(C)[C@H]3[C@@](O)(C(N)=O)[C@H](O)[C@]5(CC)C=CCN6CC[C@]43[C@@H]65)C2)C1 [Vindesine, Vindesine Sulfate]",Fibrin % inhibition,[1]; 10 µM,106%
same,LPS % inhibition,[2]; 10 µM,102%
same,LPS % cell toxicity,[3],9%
same,Fibrin % cell toxicity,[4],30%
same,Quadrant (FIG. 5b),[5],Q2
CN1CCC[C@H]1c1cccnc1 [Nicotine],inhibition at 10 µM,[1],2%
same,inhibition at 10 µM,[2]; [12],21%
same,LPS % cell toxicity,[3]; rat,1%
same,Fibrin % cell toxicity,[4]; rat,1%
same,Quadrant (FIG. 5b),[5],Q4
NCC(=O)CCC(=O)O [Aminolevulinic acid],inhibition at 10 µM,[1]; [6],-4%
same,inhibition at 10 µM,[2]; [7],10%
same,LPS % cell toxicity,[3]; rat,0%
same,Fibrin % cell toxicity,[4]; rat,1%
same,Quadrant (FIG. 5b),[5]; [8],Q4
CC[C@H]1OC(=O)[C@H](C)C(=O)[C@H](C)[C@@H](O[C@@H]2O[C@H](C)C[C@H](N(C)C)[C@H]2O)[C@](C)(OC)C[C@@H](C)C(=O)[C@H](C)[C@H]2N(CCCCn3cnc(-c4cccnc4)c3)C(=O)O[C@]12C [Telithromycin],inhibition at 10 µM,[1]; [9],0%
same,inhibition at 10 µM,[2]; [10],17%
same,LPS % cell toxicity,[3]; rat,0%
same,Fibrin % cell toxicity,[4]; rat,1%
same,Quadrant (FIG. 5b),[5]; [11],Q4
CO[C@H]1/C=C/O[C@@]2(C)Oc3c(C)c(O)c4c(c3C2=O)C2=NC3(CCN(CC(C)C)CC3)NC2=C(NC(=O)/C(C)=C\C=C\[C@H](C)[C@H](O)[C@@H](C)[C@@H](O)[C@@H](C)[C@H](OC(C)=O)[C@@H]1C)C4=O [Rifabutin],inhibition at 10 µM,[1]; [13],-51%
same,inhibition at 10 µM,[2]; [14],2%
same,LPS % cell toxicity,[3]; rat,0%
same,Fibrin % cell toxicity,[4]; rat,0%
same,Quadrant (FIG. 5b),[5]; [15],Q4
COc1cc([C@@H]2c3cc4c(cc3[C@H](O)[C@H]3COC(=O)[C@H]23)OCO4)cc(OC)c1OC [Podofilox/Podophyllotoxin],Fibrin % inhibition,[1]; [16],110%
same,LPS % inhibition,"[2]; primary microglia HTS, LPS stimulation; increased cell size (>800 μm^2) as marker of activation",107%
same,LPS % cell toxicity,[3],9%
same,Fibrin % cell toxicity,[4],8%
same,Quadrant (FIG. 5b),[5]; [17],Q2
Modaline Sulfate,Fibrin % inhibition,[1],−9%
same,LPS % inhibition,[2],25%
same,LPS % cell toxicity,[3],0%
same,Fibrin % cell toxicity,[4],1%
same,Quadrant (FIG. 5b),[5],Q4
CN1CCC(=C2c3ccccc3C=Cc3ccccc32)CC1 [Cyproheptadine],inhibition at 10 µM,[1],24%
same,inhibition at 10 µM,"[2]; Rattus norvegicus, Microglia, read-out: LPS % inhibition",43%
same,LPS % cell toxicity,[3]; rat,1%
same,Fibrin % cell toxicity,[4]; rat,1%
same,Quadrant (FIG. 5b),[5],Q4
CCCC(CCC)C(=O)O [Valproic Acid],inhibition at 10 µM,[1]; [9],-28%
same,inhibition at 10 µM,[2]; [10],27%
same,LPS % cell toxicity,[3]; rat,0%
same,Fibrin % cell toxicity,[4]; rat,0%
same,Quadrant (FIG. 5b),[5]; [11],Q4
Cc1ccc(C(=O)c2ccc(CC(=O)O)n2C)cc1 [Tolmetin],inhibition at 10 µM,[1]; [9],48%
same,inhibition at 10 µM,[2]; [10],28%
same,LPS % cell toxicity,[3]; rat,0%
same,Fibrin % cell toxicity,[4]; rat,0%
same,Quadrant (FIG. 5b),[5]; [11],Q4
COc1c(N2C[C@@H]3CCCN[C@@H]3C2)c(F)cc2c(=O)c(C(=O)O)cn(C3CC3)c12 [Moxifloxacin Hydrochloride],inhibition at 10 µM,[1]; [16],7%
same,inhibition at 10 µM,"[2]; Rattus norvegicus, Microglia, 48 h, primary microglia HTS, LPS stimulation; increased cell size (>800 μm^2) as marker of activation; read-out: LPS % inhibition",14%
same,LPS % cell toxicity,[3]; rat,0%
same,Fibrin % cell toxicity,[4]; rat,1%
same,Quadrant (FIG. 5b),[5]; [17],Q4
Cl[C@H]1[C@H](Cl)[C@@H](Cl)[C@@H](Cl)[C@H](Cl)[C@H]1Cl [Lindane],inhibition at 10 µM,[1]; [18],42%
same,inhibition at 10 µM,[2]; [19],11%
same,LPS % cell toxicity,[3]; rat,0%
same,Fibrin % cell toxicity,[4]; rat,0%
same,Quadrant (FIG. 5b),[5]; [17],Q4
CC(C)(O)c1ccccc1CC[C@@H](SCC1(CC(=O)O)CC1)c1cccc(/C=C/c2ccc3ccc(Cl)cc3n2)c1 [Montelukast Sodium],Fibrin % inhibition,[1],21%
same,LPS % inhibition,[2],16%
same,LPS % cell toxicity,[3]; rat,0%
same,Fibrin % cell toxicity,[4]; rat,1%
same,Quadrant (FIG. 5b),[5],Q4
CCCc1cc(=O)[nH]c(=S)[nH]1 [Propylthiouracil],inhibition at 10 µM,[1],-4%
same,inhibition at 10 µM,[2]; [12],8%
same,LPS % cell toxicity,[3]; rat,0%
same,Fibrin % cell toxicity,[4]; rat,0%
same,Quadrant (FIG. 5b),[5],Q4
O=P1(N(CCCl)CCCl)NCCCO1 (stereo not drawn),Fibrin % inhibition,[1]; 10 µM,−15%
same,LPS % inhibition,[2]; 10 µM,12%
same,LPS % cell toxicity,[3],0%
same,Fibrin % cell toxicity,[4],0%
same,Quadrant (FIG. 5b),[5],Q4
CC1CCC(NC(=O)N(CCCl)N=O)CC1 (stereo not drawn) [Semustine],inhibition at 10 µM,[1]; [13],-7%
same,inhibition at 10 µM,[2]; [14],18%
same,LPS % cell toxicity,[3]; rat,0%
same,Fibrin % cell toxicity,[4]; rat,1%
same,Quadrant (FIG. 5b),[5]; [15],Q4
CC(C)C(=O)Nc1ccc([N+](=O)[O-])c(C(F)(F)F)c1 [Flutamide],inhibition at 10 µM,[1]; [18],15%
same,inhibition at 10 µM,[2]; [19],23%
same,LPS % cell toxicity,[3]; rat,0%
same,Fibrin % cell toxicity,[4]; rat,1%
same,Quadrant (FIG. 5b),[5]; [17],Q4
Oc1ccc(Cl)cc1 [Parachlorophenol],inhibition at 10 µM,[1],21%
same,inhibition at 10 µM,[2]; [12],15%
same,LPS % cell toxicity,[3]; rat,0%
same,Fibrin % cell toxicity,[4]; rat,0%
same,Quadrant (FIG. 5b),[5],Q4
CN(C)C(=O)C(CCN1CCC(O)(c2ccc(Cl)cc2)CC1)(c1ccccc1)c1ccccc1 [Loperamide],inhibition at 10 µM,[1],12%
same,inhibition at 10 µM,[2]; [12],63%
same,LPS % cell toxicity,[3]; rat,2%
same,Fibrin % cell toxicity,[4]; rat,1%
same,Quadrant (FIG. 5b),[5],Q1
CN[C@H](CC(C)C)C(=O)N[C@H]1C(=O)N[C@@H](CC(N)=O)C(=O)N[C@H]2C(=O)N[C@H]3C(=O)N[C@H](C(=O)N[C@H](C(=O)O)c4cc(O)cc(O)c4-c4cc3ccc4O)[C@H](O)c3ccc(c(Cl)c3)Oc3cc2cc(c3O[C@@H]2O[C@H](CO)[C@@H](O)[C@H](O)[C@H]2O[C@H]2C[C@](C)(N)[C@H](O)[C@H](C)O2)Oc2ccc(cc2Cl)[C@H]1O [Vancomycin],Fibrin % inhibition,[1]; 10 µM,−1%
same,LPS % inhibition,[2]; 10 µM,−2%
same,LPS % cell toxicity,[3]; rat,0%
same,Fibrin % cell toxicity,[4]; rat,1%
same,Quadrant (FIG. 5b),[5],Q4
N[C@@H](CCC(=O)N[C@@H](CS)C(=O)NCC(=O)O)C(=O)O [Glutathione],inhibition at 10 µM,[1],-5%
same,inhibition at 10 µM,[2]; [12],13%
same,LPS % cell toxicity,[3]; rat,0%
same,Fibrin % cell toxicity,[4]; rat,1%
same,Quadrant (FIG. 5b),[5],Q4
